Measurements taken from ChEMBL document CHEMBL4376849, “Harmicines - harmine and cinnamic acid hybrids as novel antiplasmodial hits” (Eur J Med Chem, 2020).

Columns and labels:
[1] = test system: Plasmodium falciparum; assay: Antiplasmodial activity against chloroquine-sensitive Plasmodium falciparum 3D7 erythrocytic stage measured after 3 days by HRP2 assay; assay type: functional, organism-based; details: 3D7, 72 h
[2] = test system: HepG2; assay: Cytotoxicity against human HepG2 cells measured after 24 hrs by neutral red assay; assay type: cell-based; details: HepG2, 24 h
[3] = Selectivity index, ratio of IC50 for human HepG2 cells to IC50 for Plasmodium falciparum 3D7; assay type: toxicity; details: read-out: Ratio IC50
[4] = test system: Plasmodium falciparum; assay: Antiplasmodial activity against chloroquine-resistant Plasmodium falciparum Dd2 erythrocytic stage measured after 3 days by HRP2 assay; assay type: functional, organism-based; details: Dd2, 72 h
[5] = test system: Plasmodium berghei; assay: Antiplasmodial activity against liver stage luciferase expressing Plasmodium berghei sporozoites infected in human Huh7 cells preincubated with host cells for 1 hr followed by plasmodium infection by bioluminescence assay; assay type: functional, organism-based; details: Huh-7

For `Cc1nccc2c1[nH]c1cc(OCc3cn(C/C=C/c4ccc(F)cc4)nn3)ccc12`, the IC50 [1] was 200 nM, the IC50 [2] was 2190 nM and the selectivity ratio [3] was 11. For the same compound, the IC50 [4] was 840 nM.

`Cc1nccc2c3ccc(OCc4cn(C/C=C/c5ccc(Cl)cc5)nn4)cc3n(Cc3cn(C/C=C/c4ccc(Cl)cc4)nn3)c12` showed an IC50 [1] of 250 nM, an IC50 [2] of 29000 nM and a selectivity ratio [3] of 116. The IC50 [4] was 3280 nM.

Compound `COc1ccc2c3ccnc(C)c3n(Cc3cn(C/C=C/c4ccc5c(c4)OCO5)nn3)c2c1` has an IC50 [1] of 500 nM, an IC50 [2] of 8780 nM and a selectivity ratio [3] of 18. For the same compound, the IC50 [4] was 1570 nM.

For `C/C(=C\c1ccccc1)Cn1cc(COc2ccc3c4ccnc(C)c4n(Cc4cn(C/C(C)=C/c5ccccc5)nn4)c3c2)nn1`, the IC50 [1] was 1340 nM, the IC50 [2] was 25000 nM and the selectivity ratio [3] was 19. For the same compound, the IC50 [4] was 4020 nM.

`C/C(=C\c1ccccc1)Cn1cc(COc2ccc3c(c2)[nH]c2c(C)nccc23)nn1` showed an IC50 [1] of 330 nM, an IC50 [2] of 25300 nM and an IC50 [5] of 660 nM. For the same compound, the selectivity ratio [3] was 77 and the IC50 [4] was 3060 nM.

With `Cc1nccc2c1[nH]c1cc(OCc3cn(C/C=C/c4ccccc4)nn3)ccc12` the IC50 [1] was 260 nM, the IC50 [2] was 9670 nM and the selectivity ratio [3] was 37. For the same compound, the IC50 [4] was 1090 nM.

For `COc1ccc2c3ccnc(C)c3n(Cc3cn(C/C=C/c4ccc(Cl)cc4)nn3)c2c1`, the IC50 [1] was 440 nM, the IC50 [2] was over 250000 nM and the IC50 [5] was 1120 nM. It also gave a selectivity ratio [3] of over 568 and an IC50 [4] of 1870 nM.

With `Cc1nccc2c1[nH]c1cc(OCc3cn(C/C=C/c4ccc(F)c(F)c4)nn3)ccc12` the IC50 [1] was 340 nM, the IC50 [2] was 740 nM and the selectivity ratio [3] was 2. For the same compound, the IC50 [4] was 1010 nM.

For `Cc1nccc2c1[nH]c1cc(OCc3cn(C/C=C/c4cccc(F)c4)nn3)ccc12`, the IC50 [1] was 200 nM, the IC50 [2] was 3110 nM and the selectivity ratio [3] was 16. It also gave an IC50 [4] of 1190 nM.

`COc1ccc2c3ccnc(C)c3n(Cc3cn(C/C(C)=C/c4ccccc4)nn3)c2c1` showed an IC50 [1] of 770 nM, an IC50 [2] of 11900 nM and a selectivity ratio [3] of 15. For the same compound, the IC50 [4] was 2820 nM.

`COc1ccc2c3ccnc(C)c3n(Cc3cn(C/C=C/c4cccc(Br)c4)nn3)c2c1` gave an IC50 [1] of 560 nM, an IC50 [2] of 56600 nM and an IC50 [5] of 1100 nM. The selectivity ratio [3] was 101 and the IC50 [4] was 2260 nM.

Work on `COc1ccc(/C=C/Cn2cc(COc3ccc4c5ccnc(C)c5n(Cc5cn(C/C=C/c6ccc(OC)cc6)nn5)c4c3)nn2)cc1` yielded an IC50 [1] of 130 nM, an IC50 [2] of 43300 nM and an IC50 [5] of 400 nM. The selectivity ratio [3] was 333 and the IC50 [4] was 160 nM.

For `COc1ccc2c3ccnc(C)c3n(Cc3cn(C/C=C/c4ccc(F)cc4)nn3)c2c1`, the IC50 [1] was 870 nM, the IC50 [2] was 8880 nM and the selectivity ratio [3] was 10. For the same compound, the IC50 [4] was 2210 nM.

`Cc1nccc2c3ccc(OCc4cn(C/C=C/c5ccccc5)nn4)cc3n(Cc3cn(C/C=C/c4ccccc4)nn3)c12` gave an IC50 [1] of 560 nM, an IC50 [2] of 8590 nM and a selectivity ratio [3] of 15. For the same compound, the IC50 [4] was 1590 nM.

In the case of `Cc1nccc2c3ccc(OCc4cn(C/C=C/c5cccc(F)c5)nn4)cc3n(Cc3cn(C/C=C/c4cccc(F)c4)nn3)c12`, the IC50 [2] is reported as 6010 nM, the selectivity ratio [3] is reported as 2 and the IC50 [4] is reported as 3230 nM.

Compound `COc1ccc2c3ccnc(C)c3n(Cc3cn(C/C=C/c4ccccc4)nn3)c2c1` has an IC50 [1] of 1260 nM, an IC50 [2] of over 250000 nM and an IC50 [5] of 2620 nM. The selectivity ratio [3] was over 198 and the IC50 [4] was 23800 nM.

Compound `COc1ccc2c3ccnc(C)c3n(Cc3cn(C/C=C/c4cccc(F)c4)nn3)c2c1` has an IC50 [1] of 890 nM, an IC50 [2] of over 250000 nM and a selectivity ratio [3] of over 281. For the same compound, the IC50 [4] was 2700 nM.

Compound `Cc1nccc2c1[nH]c1cc(OCc3cn(C/C=C/c4ccc5c(c4)OCO5)nn3)ccc12` has an IC50 [1] of 160 nM, an IC50 [2] of 5600 nM and a selectivity ratio [3] of 35. It also gave an IC50 [4] of 470 nM.

Work on `Cc1nccc2c1[nH]c1cc(OCc3cn(C/C=C/c4ccc(Cl)cc4)nn3)ccc12` yielded an IC50 [1] of 150 nM, an IC50 [2] of 8800 nM and a selectivity ratio [3] of 59. For the same compound, the IC50 [4] was 690 nM.

Work on `Cc1nccc2c3ccc(OCc4cn(C/C=C/c5ccc(F)cc5)nn4)cc3n(Cc3cn(C/C=C/c4ccc(F)cc4)nn3)c12` yielded an IC50 [1] of 620 nM, an IC50 [2] of 12100 nM and a selectivity ratio [3] of 20. For the same compound, the IC50 [4] was 8000 nM.

Work on `Cc1nccc2c3ccc(OCc4cn(C/C=C/c5ccc(F)c(F)c5)nn4)cc3n(Cc3cn(C/C=C/c4ccc(F)c(F)c4)nn3)c12` yielded an IC50 [1] of 1070 nM, an IC50 [2] of 11000 nM and a selectivity ratio [3] of 6. The IC50 [4] was 17900 nM.

Work on `COc1ccc(/C=C/Cn2cc(COc3ccc4c(c3)[nH]c3c(C)nccc34)nn2)cc1` yielded an IC50 [1] of 430 nM, an IC50 [2] of 5370 nM and a selectivity ratio [3] of 12. The IC50 [4] was 690 nM.

For `COc1ccc2c3ccnc(C)c3n(Cc3cn(C/C=C/c4ccc(F)c(F)c4)nn3)c2c1`, the IC50 [1] was 650 nM, the IC50 [2] was 9750 nM and the selectivity ratio [3] was 15. It also gave an IC50 [4] of 2550 nM.

Work on `Cc1nccc2c1[nH]c1cc(OCc3cn(C/C=C/c4cccc(Br)c4)nn3)ccc12` yielded an IC50 [1] of 130 nM, an IC50 [2] of 2860 nM and a selectivity ratio [3] of 22. For the same compound, the IC50 [4] was 460 nM.

Work on `COc1ccc(/C=C/Cn2cc(Cn3c4cc(OC)ccc4c4ccnc(C)c43)nn2)cc1` yielded an IC50 [1] of 610 nM, an IC50 [2] of over 120000 nM and a selectivity ratio [3] of over 197. For the same compound, the IC50 [4] was 16600 nM.

Compound `Cc1nccc2c3ccc(OCc4cn(C/C=C/c5ccc6c(c5)OCO6)nn4)cc3n(Cc3cn(C/C=C/c4ccc5c(c4)OCO5)nn3)c12` has an IC50 [1] of 440 nM, an IC50 [2] of 36100 nM and a selectivity ratio [3] of 82. For the same compound, the IC50 [4] was 650 nM.

For `COc1ccc2c(c1)[nH]c1c(C)nccc12` [HARMINE], the IC50 [2] was over 250000 nM and the IC50 [4] was over 27700 nM.
